Experimental data from patent publication US7667052B2 (Eisai R&D Management Co., Ltd., priority 2003, dated 2010).
≈ marks a conversion by molar mass, not a printed value.

Experiments:
[1] = system: H460, U251, BSY-1, MDA-MB435, PC-3, DU145, OVCAR-3, WiDr and B16 melanoma cells; experiment: Growth suppressing activity to various cancer cells, Alamar Blue; type: cell-based, human; mouse; details: 72 h; range over nine cancer cell lines, 3 days; read-out: growth suppressing activity IC50 values for the studied cell lines
Method: H460 human lung cancer cell, U251 human glioma cell, BSY-1 and MDA-MB435 human breast cancer cell, PC-3 and DU145 human prostate cancer cell, OVCAR-3 human ovarian cancer cell, WiDr human colon cancer cell and B16 melanoma mouse melanoma cell cultured in DMEM (manufactured by SIGMA Co., Ltd.) containing 10% fetal calf serum were dispensed in 96-well plates by 2×10^3 cells/180 μl, and they were cultured at 37° C. overnight in a CO2 incubator (5% CO2). Then, 20 μL of the above-mentioned incubation solution containing test compounds diluted with 2-fold succession was added, and they were further cultured in a CO2 incubator for 3 days.
(§1) 20 μL of Alamar Blue reagent (Biosource Co.) was added to the cultured cells, and after 3 to 5 hours, fluorescence activity (ex 530 nm/em 590 nm) was measured by a micro plate reader (ARBO, Perkin-Elmer Co.). The cell growth of the control to which the compound is not added is set as 100%, the concentration at which it was suppressed by 50% was determined.

[2] = system: human breast cancer BSY-1 cell; experiment: Solid cancer proliferation suppressing action, subcutaneous transplant; type: in vivo, mice; details: single administration, 10 mg/kg intravenous
Method: In order to study solid cancer proliferation suppressing action of 11107B in vivo, human breast cancer BSY-1 cell was transplanted to the subcutaneous body sides of mice. The animals were grouped so that the average of the volumes of the respective groups became uniform, when it reached about 100 mm^3. Control group was made as 10 mice and 11107B-administering groups were made as 5 mice. 11107B was administrated for the 11107B-administering groups once by intravenous injection so as to be 10 mg/kg, and a vehicle was administered to the control group. The tumor volumes on the fifth day, eighth day, 12th day and 15th day were measured, and relative tumor volumes were determined setting the tumor volume at the initiation of administration as 1.

[3] = system: VEGF production in PC3 human prostate cancer cell; experiment: VEGF production suppressing action in various carcinoma cells, ELISA; type: cell-based; details: PC 3, low oxygen 18 hours
Method: (§2) WiDr human colon cancer cell, PC3 human prostate cancer cell, DU145 human […] cancer cell and HT1080 human […] cancer cell, which were cultured in DULBECCO-modified eagle medium (manufactured by DMEM SIGMA Co., Ltd.) containing 10% fetal calf serum, penicillin (100 unit/ml) and streptomycin (100 μg/ml) were dispensed in 96 well plates by 3×10^4 cells/well. After culturing at 37° C. overnight in a CO2 incubator (5% CO2), the media were removed, and 180 μl of the above-mentioned incubation solution was charged. After adding 20 μL of the above-mentioned incubation solution containing the test compound diluted with 3-fold succession, they were incubated in a low oxygen ([…]) incubator for 18 hours. The supernatants thereof were measured by an ELISA kit (Immunobiology Research Institute).
(§3) Concentration at which the amount of VEGF expressed by low oxygen stimulation was suppressed to 50% (IC50 value) was determined and results are shown in Table 10.

[4] = system: VEGF production in DU145 human colon cancer cell; experiment: as above; type: cell-based; details: DU-145, low oxygen 18 hours
Method: as §2, §3

[5] = system: VEGF production in WiDr human colon cancer cell; experiment: as above; type: cell-based; details: low oxygen 18 hours
Method: as §2, §3

[6] = system: VEGF production in HT1080; experiment: as above; type: cell-based; details: Homo sapiens; HT 1080, low oxygen 18 hours
Method: as §2, §3

[7] = system: VEGF production in U251 human glioma cell; experiment: VEGF production suppressing action under low oxygen, ELISA; type: cell-based; details: U251, low oxygen stimulation
Method: U251 human glioma cell cultured in DULBECCO-modified eagle medium (DMEM; manufactured by SIGMA Co., Ltd.) containing 10% fetal calf serum, penicillin (100 unit/ml) and streptomycin (100 μg/ml) was dispensed in 96-well plates by 4×10^4 cells/well. After culturing at 37° C. overnight in a CO2 incubator (5% CO2), the media were removed, and 180 μl of the above-mentioned incubation solution was charged. After adding 20 μL of the above-mentioned incubation solution containing the test compound diluted with 3-fold succession, they were incubated in a low oxygen (2% O2) incubator for 18 hours. The supernatants thereof were measured by an ELISA kit (Immunobiology Research Institute).
Concentration at which the amount of VEGF expressed by low oxygen stimulation was suppressed to 50% (IC50 value) was determined and results are shown in Table 9. […] The activities of 11107F and 11107G were very weak.

[8] = system: MOLT 4 human acute lymphoblastic cell; experiment: Growth suppressing activity to leukemia cell, Alamar Blue; type: cell-based; details: MOLT-4, 72 h, MOLT4, 3 days, read-out: Multiplication suppressing activity IC50
Method: (§4) Dami human blood megakaryocytic cell, MOLT 4 human acute lymphoblastic cell, K562 human chronic myelogenous cell, U937 human histcytic lymphoma and p388 mouse lymphoma cultured in RPMI 1640 (manufactured by SIGMA Co., Ltd.) containing 10% fetal calf serum were dispensed in 96-well plates by 2×10^3 cells/180 μl, and they were cultured at 37° C. overnight in a CO2 incubator (5% CO2). Then, 20 μL of the above-mentioned incubation solution containing 11107B diluted with 2-fold succession was added, and they were further cultured in a CO2 incubator for 3 days.
as §1, with “cell,” for “cells,”, “and” for “and after 3 to 5 hours,”, “Co.) after 3 to 5 hours.” for “Co.).”

[9] = system: K562 human chronic myelogenous cell; experiment: as above; type: cell-based; details: 72 h, K562, 3 days, read-out: Multiplication suppressing activity IC50
Method: as §4
as §1, with “cell,” for “cells,”, “and” for “and after 3 to 5 hours,”, “Co.) after 3 to 5 hours.” for “Co.).”

[10] = system: U937 human histcytic lymphoma; experiment: as above; type: cell-based; details: U-937, 72 h, U937, 3 days, read-out: Multiplication suppressing activity IC50
Method: as §4
as §1, with “cell,” for “cells,”, “and” for “and after 3 to 5 hours,”, “Co.) after 3 to 5 hours.” for “Co.).”

[11] = system: p388 mouse lymphoma; experiment: as above; type: cell-based; details: 72 h, p388, 3 days, read-out: Multiplication suppressing activity IC50
Method: as §4
as §1, with “cell,” for “cells,”, “and” for “and after 3 to 5 hours,”, “Co.) after 3 to 5 hours.” for “Co.).”

[12] = system: Dami human blood megakaryocytic cell; experiment: as above; type: cell-based; details: 72 h, 3 days, read-out: Multiplication suppressing activity IC50
Method: as §4
as §1, with “cell,” for “cells,”, “and” for “and after 3 to 5 hours,”, “Co.) after 3 to 5 hours.” for “Co.).”

`CCC(O)C(C)C1OC1CC(C)/C=C/C=C(\C)C1OC(=O)CC(O)CCC(C)(O)C(OC(C)=O)/C=C/C1C` (stereo not drawn) [11107B] was tested, and the IC50 [1] was 0.9 to 2.9 nM, the “solid tumor suppression, in words” value [2] was “showed the effect of suppressing solid tumor” and the IC50 [3] was 0.71 ng/mL (≈ 1.32 nM). The IC50 [4] was 1.05 ng/mL (≈ 1.96 nM), the IC50 [5] was 0.65 ng/mL (≈ 1.21 nM) and the IC50 [6] was 1.89 ng/mL (≈ 3.52 nM). For the same molecule, the “VEGF production suppression, in words” value [7] was “suppressed most strongly VEGF production”, the IC50 [8] was 1.5 nM and the IC50 [9] was 2.1 nM. For the same molecule, the IC50 [10] was 1.1 nM, the IC50 [11] was 2 nM and the IC50 [12] was 1.2 nM.
